Values of other authors as cited in patent US20220151901A1, “A METHOD OF COLORING KERATINOUS MATERIAL COMPRISING THE USE OF AN ORGANOSILICON COMPOUND, A COLORING COMPOUND, AND A MIXTURE OF SILICONES” (Henkel AG & Co. KGaA, priority 2019, published 2022).

Details: 25° C.

| solubility in water (in words) | Compound | solubility in water |
| --- | --- | --- |
| highly soluble | O=C([O-])C1=NN(c2ccc(S(=O)(=O)[O-])cc2)C(=O)C1N=Nc1ccc(S(=O)(=O)[O-])cc1.[Na+].[Na+].[Na+] (centres unmarked) [Acid Yellow 23, trisodium salt of 4,5-dihydro-5-oxo-1-(4-sulfophenyl)-4-((4-sulfophenyl)azo)-1H-pyrazole-3-carboxylic acid] |  |
|  | O=S(=O)([O-])c1ccc(N=Nc2c(O)ccc3ccccc23)cc1.[Na+] [Acid Orange 7, sodium salt of 4-[(2-hydroxy-1-naphthyl)azo]benzene sulphonate] | more than 7 g/L |
|  | CCN(Cc1cccc(S(=O)(=O)[O-])c1)c1ccc(C(=C2C=CC(=[N+](CC)Cc3cccc(S(=O)(=O)[O-])c3)C=C2)c2ccccc2S(=O)(=O)[O-])cc1.[Na+].[Na+] [Acid Blue 9] | more than 20 % by weight |
|  | Nc1cc(S(=O)(=O)[O-])cc2cc(S(=O)(=O)[O-])c(N=Nc3ccccc3)c(O)c12.[Na+].[Na+] [Acid Red 33, disodium salt of 5-amino-4-hydroxy-3-(phenylazo)-naphthalene-2,7-disulphonate] | 2500 µg/mL |
|  | O=C([O-])c1c(Cl)c(Cl)c(Cl)c(Cl)c1-c1c2c(Br)cc(=O)c(Br)c-2oc2c(Br)c(O)cc(Br)c12.O=C([O-])c1c(Cl)c(Cl)c(Cl)c(Cl)c1-c1c2c(Br)cc(=O)c(Br)c-2oc2c(Br)c(O)cc(Br)c12.[Na+].[Na+] [Acid Red 92, disodium salt of 3,4,5,6-tetrachloro-2-(1,4,5,8-tetrabromo-6-hydroxy-3-oxoxanthen-9-yl)benzoic acid] | greater than 10 g/L |
